Assay results: patent publication US20110061129A1 (priority 2008, published 2011)

How the values were obtained:
[1] = tested on: Saccharomyces cerevisiae homozygous diploid YKO strains and parental strain BY4743; type: cell-based
[2] = tested on: mitochondrial translation in BY4743 and YKO strains; type: cell-based, Saccharomyces cerevisiae
[3] = tested on: total translation in BY4743 and YKO strains; type: cell-based, Saccharomyces cerevisiae
[4] = tested on: Saccharomyces cerevisiae homozygous diploid YKO strains and parental strain BY4743; type: cell-based; remark: listed apart in the source

Compound: C/C=C\C(=O)O[C@@H]1C[C@H]2O[C@@H]3C=C(C)C(=O)C[C@]3(C)[C@]1(C)[C@]21CO1 [T-cin, trichothecin]
- effect of the 2 μM screening concentration on growth (parental strain) [1]: non-lethal
- effect on mitochondrial translation [2]: able to inhibit mitochondrial translation
- inhibition of the cytosolic translation rate of BY4743 [3]: 80-90%
- effect of the screening level of toxin on the parental strain [4]: lethal
